Measured values as given in patent publication US11202836B2, “PSMA targeted conjugate compounds and uses thereof” (CASE WESTERN RESERVE UNIVERSITY, priority 2018, dated 2021).
Several values for one entry are separate records, joined by “and”; a condition that tells them apart may be missing. Identical values can stand only once. *1 amine or outer side, *2 acyl side, *3 side chain or, on linkers, in order; H or OH if unused. Where a SMILES comes first, the peptide text is derived from it. Bridges are numbered along the chain shown (N, C = ends). Roman numbers before positions name the chains, in order. [ ]: non-standard residue; d: D form. The star is where a group is joined. ξ: configuration not given here. X2 = CN1/C(=C/C=C/C=C/C2=[N+](CCCCCC(=O)*)c3ccc4ccccc4c3C2(C)C)C(C)(C)c2c1ccc1ccccc21; Hexanoyl(6-succinimido-3yl) = O=C1CC([*:1])C(=O)N1CCCCCC(=O)[*:2]; X3 = CC[C@H](C)[C@@H]([C@H](CC(=O)[*:2])OC)N(C)[*:1]; Dolaproine = CO[C@@H]([C@@H]1CCCN1)[C@@H](C)C(=O)O; Dil = CC[C@H](C)[C@H](NC)[C@@H](CC(=O)O)OC; PABC = O=C(OCc1ccc(N[*:1])cc1)[*:2]; ξγGlu = O=C(O)C(CCC(=O)[*:2])N[*:1]; X4 = C[C@@H](N*)[C@@H](O)c1ccccc1; X1 = O=C(C1CCC(CN[*:1])CC1)[*:2]; Cit = NC(=O)NCCC[C@H](N)C(=O)O; NMeV = CN[C@H](C(=O)O)C(C)C; ξE = NC(CCC(=O)O)C(=O)O; CO = O=C([*:1])[*:2]; ξK = NCCCCC(N)C(=O)O; Ahx = NCCCCCC(=O)O; ξC = NC(CS)C(=O)O

Columns and labels:
[1] = Maximum tolerated dose (single i.v. dose); format: in vivo, mice; conditions: single dose i.v., tumor-free athymic nude mice, 14 days
Source text: Mice were monitored daily for 14 days.

α-tubulin = experiment: Immunofluorescence analysis of alpha-tubulin in PC3pip and PC3flu cells; format: cell-based; conditions: 5 nM, 24 hours
Procedure: Cells on coverslips at about 70% confluency were incubated with 5 nM of MMAE, PSMA-1-VcMMAE-Cy5.5 or PSMA-1-McMMAE-Cy5.5 for 24 hours. Cells were washed and fixed with 4% paraformaldehyde for 10 minutes, permeabilized with 0.1% Triton™ X-100 for 10 minutes, and blocked with 1% BSA for 1 hour at room temperature. Alpha-tubulin (B5-1-2) Alexa Fluor 488 Mouse Monoclonal Antibody (Invitrogen) was then added at 2 μg/mL in 0.1% BSA and incubated for 3 hours at room temperature. Cells were counterstained with DAPI, mounted with Fluor-Mount aqueous mounting solution, and observed under Leica DM4000B fluorescence microscopy at 40×.

PC3pip cells = experiment: In vitro cytotoxicity assay (CCK-8, 72 h), PSMA-positive cells; format: cell-based
Procedure: Cells (1,000/well) were seeded in 96-well culture plates the day before treatment. Cells were incubated with various concentrations of drugs for 72 hours and cell viability evaluated by CCK-8 (Dojindo). The concentration required to reach 50% of cell proliferation was determined (IC50) by GraphPad Prism 3.0.

[2] = tested on: heterotopic PC3pip tumors; experiment: Heterotopic PC3pip tumor survival / antitumor study; format: in vivo; conditions: for tumor growth: 160 nmol/kg i.v. every 4 days
Source text: Male athymic nude mice were implanted subcutaneously with 1×10^6 of PC3pip cells under the right dorsum of the mice. When tumor size reached approximately 100 mm^3 (tumor volume=Length×width^2/2), mice received drugs through tail vein injection. […] Animals were weighed and tumor size measured every other day for 90 days. Cures were defined as no tumor present at end of the 90-day study. When tumors became too large or animals were moribund they were euthanized. Five mice were used in each group.

metastatic PC3pip model = experiment: Metastatic PC3pip survival study (intracardiac GFP-PC3pip); format: in vivo, mice; conditions: 160 nmol/kg every 4 days, 5 doses
Procedure: Male athymic nude mice were injected into the left ventricle of the heart with 1×10^5 GFP labeled PC3pip cells to generate bone metastasis. One week later mice received 160 nmol/kg PSMA-1-VcMMAE-Cy5.5 or PBS every 4 days with a total of 5 doses and the progression of disease was monitored by GFP imaging. Five mice were used in each group.

PC3pip and PC3flu tumors = experiment: In vivo NIR imaging of mice bearing PC3pip and PC3flu tumors; conditions: 40 nmol/kg i.v.
Procedure: Under guidelines of the animal care and use committee at Case Western Reserve University (IACUC #150033) 6 to 8-week old male Balb/cathymic nude mice were implanted subcutaneously with 1×10^6 of PC3flu and PC3pip on the left and right dorsum respectively. Mice received 40 nmol/kg of PSMA-1-VcMMAE-Cy5.5 or PSMA-1-McMMAE-Cy5.5 in PBS via tail vein injection when tumors reached 10 mm in diameter. Fluorescence imaging was performed using the Maestro In Vivo Imaging system (Perkin-Elmer). Multispectral images were unmixed into their component spectra (PSMA probes, autofluorescence, and background) to quantitate the average fluorescence intensity associated with the tumors using regions of interest (ROIs) around the tumors.

orthotopic PC3pip tumors = experiment: Orthotopic PC3pip tumor survival study; format: in vivo, mice
Procedure: Surgical orthotopic tumor implantation was performed as previously reported. Tumor growth/size was monitored using Siemens Acuson […] ultrasound scanner. When the tumors were at the appropriate size (5 mm as measured by ultrasound, approximately 2 weeks) animals were given PSMA-1-VcMMAE, PSMA-1-VcMMAE-Cy5.5, or PBS every four days with a total of 5 doses. Tumors were monitored every other day by ultrasound. Each group had five mice.

heterotopic C4-2 tumors = experiment: Heterotopic C4-2 tumor study; set-up: species or system mice; conditions: mouse, in vivo
Source text: To show versatility of the antitumor activity of PSMA-1-VcMMAE-Cy5.5, we tested it in mice bearing heterotopic C4-2 tumors, which are androgen-independent prostate cancer cells endogenously expressing PSMA.

[3] = Stability of conjugates incubated in PBS without enzyme (HPLC); format: physicochemical; conditions: no enzyme
Procedure: (§1) PSMA-1-VcMMAE-Cy5.5 or PSMA-1-McMMAE-Cy5.5 was added to 500 μL of activated human liver cathepsin B (Anthens Research and Technology) solution (46) to a final concentration of 2 μM and incubated at 37° C. At different time intervals, 40 μL of the solution was taken out into tubes loaded with 1 μL of 1 mM E64 protease inhibitor. The mixture was vortexed and then stored at −80° C. for future HPLC analysis to assess degradation of PSMA-1-VcMMAE-Cy5.5 or PSMA-1-McMMAE-Cy5.5. Studies were performed in triplicate.
To investigate if PSMA-targeted drug conjugates were cleavable by cathepsin B, the two conjugates were incubated with or without the enzyme and chromatographed by HPLC. When the conjugates were incubated with PBS, both PSMA-1-VcMMAE-Cy5.5 and PSMA-1-McMMAE-Cy5.5 were stable (FIG. 11D).

cathepsin B = biological target: T1, cathepsin B (Homo sapiens, UniProt P07858); experiment: Enzymatic cleavage by cathepsin B (HPLC); format: in vitro ADME; conditions: human, activated human liver cathepsin B solution; 2 μM conjugate, 37° C.; read-out: half-life in the presence of cathepsin B (converted)
T1 construct: purchased Anthens Research and Technology; host or cells: human liver (tissue-derived enzyme)
Procedure: as §1

human liver cathepsin B = biological target: T2, human liver cathepsin B (Homo sapiens, UniProt P07858); experiment: Enzymatic cleavage by cathepsin B (HPLC); format: in vitro ADME; conditions: 2 μM conjugate, 37° C.
T2 construct: purchased Anthens Research and Technology; host or cells: human liver (tissue-derived enzyme)
Procedure: as §1

In the case of `CC[C@H](C)[C@@H]([C@@H](CC(=O)N1CCC[C@H]1[C@H](OC)[C@@H](C)C(=O)N[C@H](C)[C@@H](O)c1ccccc1)OC)N(C)C(=O)[C@@H](NC(=O)[C@@H](NC)C(C)C)C(C)C` [MMAE, monomethyl auristatin E, reference compound] (H-[NMeV]V[Dil][Dolaproine]-X4), the “maximum tolerated dose (MTD)” value [1] is reported as 700 nmol/kg, the “disruption of α-tubulin” value (α-tubulin) is reported as “non-selective tubulin disruption” and the “selectivity, differential cytotoxicity PC3pip vs PC3flu cells” value (PC3pip cells; 72 hours, PC3flu IC50 over PC3pip IC50) is reported as “no selectivity”. For the same molecule, the “time by which all mice died” value ([2]; 160 nmol/kg) was ≤ 36 days and the tumor growth ([2]; 5 doses) was “relatively ineffective at inhibiting tumor growth”.
In the case of `CC[C@H](C)[C@@H]([C@H](CC(=O)N1CCC[C@H]1[C@H](OC)[C@@H](C)C(=O)N[C@H](C)[C@@H](O)c1ccccc1)OC)N(C)C(=O)[C@@H](NC(=O)[C@H](C(C)C)N(C)C(=O)OCc1ccc(NC(=O)[C@H](CCCNC(N)=O)NC(=O)[C@@H](NC(=O)CCCCCN2C(=O)CC(SCC(NC(=O)C(CCC(=O)O)NC(=O)C(CCC(=O)O)NC(=O)C(CCC(=O)O)NC(=O)CCCCCNC(=O)C3CCC(CNC(=O)CCC(NC(=O)NC(CCC(=O)O)C(=O)O)C(=O)O)CC3)C(=O)NCCCCCC(=O)NC(CCCCNC(=O)CCCCC[N+]3=C(/C=C/C=C/C=C4/N(C)c5ccc6ccccc6c5C4(C)C)C(C)(C)c4c3ccc3ccccc43)C(N)=O)C2=O)C(C)C)cc1)C(C)C` (stereo partly shown) [PSMA-1-VcMMAE-Cy5.5] (I: {ξE-CO-ξγGlu}-[X1][Ahx][ξE][ξE][ξE][ξC][Ahx][ξK](X2)-NH2 / II: V[Cit][PABC][NMeV]V[X3][Dolaproine]-X4; linker I:6-II:N via Hexanoyl(6-succinimido-3yl)), the animal survival (metastatic PC3pip model) is reported as “all 5 treated mice survived the 90-day experimental period”, the body weight loss (metastatic PC3pip model) is reported as “no significant body weight loss” and the “response (no GFP signal)” value (metastatic PC3pip model) is reported as 100%. For the same molecule, the MTD at 14 days ([1]; male, mouse, in vivo, iv) was 0.48 µmol/kg, the “time of peak uptake in PC3pip tumors post-injection” value (PC3pip and PC3flu tumors) was 24 h and the “disruption of α-tubulin” value (α-tubulin) was “selective disruption of tubulin in PC3pip cells but not in PC3flu cells”. The “cure at day 90” value (orthotopic PC3pip tumors; every four days, 5 doses) was 40%, the body weight loss (orthotopic PC3pip tumors; mouse, in vivo) was “No significant body weight loss” and the “potency to kill PC3pip cells in the presence of PSMA-1 ligand” value (PC3pip cells; 10 μM of PSMA-1) was “reduced to the same potency to kill PC3flu cells”. For the same molecule, the IC50 (PC3pip cells; 72 hours, CCK-8) was 0.84 nM and 0.75 nM, the “effect of protease inhibitor E64 on cell killing potency” value (PC3pip cells; co-incubation with 50 μM E64) was “reduced the potency” and the cure rate (heterotopic C4-2 tumors) was 40%. The weight loss (heterotopic C4-2 tumors) was “no weight loss”, the “stability when incubated with PBS” value [3] was “stable” and the “cure rate (no tumors at end of study)” value ([2]; 160 nmol/kg every 4 days, 5 doses, 90 days) was 60%. For the same molecule, the tumor growth ([2]; 5 doses) was “effectively inhibited tumor growth as early as day 6”, the “tumor growth when given every 7 days” value ([2]; every 7 days, model not stated) was “greatly inhibited tumor growth” and the “lowest dose effectively inhibiting tumor growth” value ([2]; mouse, in vivo) was 80 nmol/kg. For the same molecule, the half-life at 2 μM (cathepsin B) was 19.8 min and the “cleavage in the presence of cathepsin B” value (human liver cathepsin B) was “degraded rapidly”.
